“Also recorded” adds a separate entry of the source.
Assays:
[1] = test system: MCaIV tumors; assay: Intravital microscopy of MCaIV tumors under iNOS inhibition; format: in vivo, mice; settings: 1400 W 10 mg/kg/day by osmotic pump vs saline, 7 days
Description: FIGS. 12A-E show the effect of iNOS inhibition in MCaIV tumors and blood vessel morphology and function in MCaIV tumors. (A) Fluorescence immunohistochemistry image of iNOS expression (green), F4/80 positive macrophages (red) and DAPI stained nuclei (blue) in MCaIV tumors grown in the mammary fat pad. The bar indicates 50 μm. (B-C) MPLSM images of MCaIV tumors grown in αSMA^P-GFP mice treated with saline control (B) or an iNOS inhibitor 1400 W (C). Functional blood vessels were contrast-enhanced by i.v. injection of tetramethylrhodamine-dextran (red). αSMA-positive perivascular cells were visualized by GFP fluorescence (green). The bars indicate 100 μm. (D-E) MCaIV tumors grown in αSMAP-GFP mice were treated with saline (control) or iNOS inhibitor (1400 W) for 7 days. (D) Perivascular cell coverage. (N=4, each). (E) Vascular permeability (N=7, each). Data are mean±SEM. *p<0.05 vs. control.
Breast cancer cells in MCaIV murine mammary tumor model express iNOS similar to many human tumors, in contrast to the U87MG glioma model, in which tumor cells predominantly express neuronal NOS (nNOS). MCaIV tumors grown orthotopically in the mammary fat pad express iNOS and to a much lesser extent eNOS as determined by real time RT-PCR. […] Inhibition of iNOS would eliminate the majority of non-vascular NO production. […]

[2] = test system: GL261 tumors; assay: Vessel morphology and function of GL261 tumors in the cranial window; format: in vivo; settings: L-NPA vs saline, SCID mice
Method: FIGS. 7A-E show NOS expression in GL261 tumors and the effect of an nNOS selective inhibitor on vessel morphology and function in GL261 tumors. (A) NOS expression in GL261 tumors grown in the cranial window in SCID mice. Five micron paraffin block sections were immunostained using antibodies to eNOS, nNOS, iNOS or non-specific mouse IgG. The bar indicates 100 μm. Different from U87MG tumors, GL261 tumor cells express all three isoforms of NOS, especially strong expression of eNOS. (B) MPLSM microangiographies of GL261 tumors treated with saline and L-NPA. The bar indicates 200 μm. (C-D) Quantification of 3-D vessel density (C) and diameter (D) using MPLSM image stack and an automated image analysis system. N=6 each. (E) Microvascular permeability in GL261 tumors treated with saline (N=6) and L-NPA (N=6) was measured by intravital microscopy using tetramethylrhodamine-BSA. […]
(§1) Angiogenesis and vessel morphology were determined in U87 and GL261 tumors grown in the cranial windows by intravital microscopy using multiphoton laserscanning microscopy (MPLSM) or single photon fluorescence microscopy (SPFM) when tumors reached about 7 mm^2. […] Using MPLSM, five locations with 200-μm thick imaging stack were recorded for each tumor. […]
The effective vascular permeability (P) was determined by SPFM as described previously (Fukumura, D., et al. 2001 Proc Natl Acad Sci USA 98, 2604-2609). […]

[3] = test system: U87MG tumors; assay: Microvascular permeability of U87 tumors by intravital microscopy with tetramethylrhodamine-BSA; format: in vivo, mice; settings: L-NPA 20 mg/kg daily i.p. vs saline, cranial window
Method: To lower NO production from all NOS isoforms in the gliomas, mice received a pan-NOS inhibitor NG-Monomethyl-L-arginine monoacetate (L-NMMA) (Alexis Corp.) or non-active control compound D-NMMA (Alexis Corp.) at the rate of 7 mg/day by a constant release micro-osmotic pump (Model 1002, Alzet Osmotic Pumps, Durect Corp.) (Kashiwagi, S., et al. 2005 J. Clin. Invest. 115, 1816-1827). The micro-osmotic pumps were implanted in the back of the animals one day before the implantation of tumors. […]
The effective vascular permeability (P) was determined by SPFM as described previously (Fukumura, D., et al. 2001 Proc Natl Acad Sci USA 98, 2604-2609). In brief, the fluorescence intensity of the tumor tissue was intermittently measured for 20 min after the injection of tetramethylrhodamine-labeled bovine serum albumin (10 mg/ml, 0.1 ml per 25 g body weight). Permeability was calculated as P=(1−HT) V/S [1/(I0−Ib)*dI/dt+1/K], where I is the average fluorescence intensity of the whole image, I0 is the initial fluorescence intensity, and Ib is the background fluorescence intensity, HT is hematocrit, V and S are the total volume and surface area of vessels within the tissue volume covered by the surface image, respectively, and K is the time constant of BSA plasma clearance (Fukumura, D., et al. 2001 Proc Natl Acad Sci USA 98, 2604-2609).

[4] = test system: U87MG tumors; assay: Vessel morphology of U87 tumors in the cranial window by intravital microscopy; format: in vivo, mice; settings: L-NPA 20 mg/kg daily i.p. vs saline, cranial window
Method: Recombination activating gene 1 (Rag-1^−/−) mice backcrossed to C57BL/6 background or severe combined immunodeficiency (SCID) mice, bred and maintained in an gnotobiotic animal facility, were used. To obtain source tumor tissue, U87 tumor cells in culture (1×10^6 cells) were injected subcutaneously into Rag-1^−/− or SCID mice matching the recipient mice. When the tumor reached about 8 mm in diameter, it was excised after euthanasia and a small piece (about 1 mm^3) of viable tumor tissue was implanted into a cranial window or subcutaneously into the calf area of the right hindlegs of the mice as previously described (Kashiwagi, S., et al. 2005 J. Clin. Invest. 115, 1816-1827; Kozin, S. V., et al. 2001 Cancer Research 61, 39-44). All animal procedures were carried oat following the Public Health Service Policy on Humane Care of Laboratory Animals and approved by the Institutional Animal Care and Use Committee of Massachusetts General Hospital. […]
as §1
Vascular parameters such as functional vessel density (the total length of perfused microvessels per unit area) and vessel diameter were analyzed by tracing each vessel segment using NIH image 1.63 as described elsewhere (Kashiwagi, S., et al. 2005 J. Clin. Invest. 115, 1816-1827). Tissue distribution of NO was visualized using MPLSM and the NO-sensitive fluorescence probe 4,5-diaminofluorescein (DAF-2) (0.5 mg i.v. Daiichi Pure Chemicals Co. Ltd) as described previously (Kashiwagi, S., et al. 2005 J. Clin. Invest. 115, 1816-1827). NO converts DAF-2 to 4,5-diaminofluorescein triazolium (DAF-2T) increasing fluorescence by a factor of 200. The DAF-2 associated fluorescence images were captured 60 min after i.v. injection. […]

[5] = test system: 10T1/2 cells; assay: cGMP production in cultured 10T1/2 cells; format: cell-based; settings: 100 μM
Method: FIGS. 13A-C show the role of the NO-sGC-cGMP pathway in perivascular cell recruitment and migration. (A) In bar graph form, cGMP production in cultured 10T1/2 cells in response to NO donor or PDE5 inhibitor. (B) In bar graph form, the migration of 10T1/2 cells in a transwell assay. 10T1/2 cell migration was assessed using Falcon HTS FluoroBlok inserts with 1 μm pores. GFP-expressing 10T1/2 cells were inoculated in the inserts, and HUVECs were inoculated in the outer well. Percent area of transwell filter covered by migrated 10T1/2 cells was determined. Medium only indicates no HUVECs in the outer well. ODQ, T-1032, Sildenafil, or Sildenafil+L-NMMA were added to the medium. *P<0.05 vs. control (HUVEC). (C) Images for transmigrated GFP-10T1/2 cells at the back side of the Fluoroblock insert after 10 hours with control vs. T-1032 treatment.
cGMP levels were examined in 10T1/2 cells following treatments of an NO donor DETANONOate or an inhibitor for phosphodiesterase 5 (PDE5), an enzyme which degrades cGMP.

CC(=N)NCc1cccc(CN)c1 [1400 W, N-(3-(Aminomethyl)benzyl) acetamidine]
vascular permeability [1]: significantly lower | perivascular cell coverage ([1]; αSMAP-GFP mice): significantly increased

CCCN=C(N)NCCC[C@H](N)C(=O)O [L-NPA, NG propyl-L-arginine]
tumor vasculature (vessel morphology and function) [2]: did not improve; also recorded: did not alter | vascular permeability [3]: decreased | vessel density [4]: increased

NCCN(CCN)/[N+]([O-])=N/O [DETANONOate]
cGMP level [5]: increased
